The text below walks through data of patent US20100113530A1, “S1P LYASE INHIBITORS FOR THE TREATMENT OF CEREBRAL MALARIA” (priority 2008, published 2010).

The structures appear in SMILES notation.

The subject of one assay is CD8+ T cells. The assay is described as follows: Cerebral malaria model: flow cytometry of tail vein blood for B and T cell levels. Format: in vivo, C56B1/6 mice. To be noted: first dose one day before infection, blood taken 24 h after first dose, FIG. 1. On the procedure:
(§1) FIGS. 1 and 2 show results of an experiment using three groups of 10 female C56B1/6 mice. The mice in all three groups were infected with 1 million parasites (P. berghei ANKA) i.p. in 500 μl of media. The first group was the control group. The S1P lyase inhibitor (E)-1-(4-((1R,2S,3R)-1,2,3,4-tetrahydroxybutyl)-1H-imidazol-2-yl)-ethanone oxime was administered i.p. (100 mg/kg) to the mice in the second group, and was administered by gavage (100 mg/kg) to the mice in the third group. The drug was administered daily, and was first administered one day before infection.
(§2) Twenty four hours after the drug was first administered, tail vein blood was taken from the mice, and flow cytometry analysis was used to assess the levels of B and T cells, using antibodies to CD3, CD4, CD8 and CD19. The animals were monitored daily for body weight, hematocrit, and parasitaemia, and twice daily for survival.
(In flow cytometry, cells or beads pass a laser one at a time.)

The subject of another assay is P. berghei ANKA. In words: Cerebral malaria model: survival of infected mice. Type of assay: in vivo, C56B1/6 mice. To be noted: first dose one day before infection, FIG. 2. On the procedure:
as §1, §2

Regarding `C/C(=N\O)c1nc([C@@H](O)[C@H](O)[C@H](O)CO)c[nH]1` [(E)-1-(4-((1R,2S,3R)-1,2,3,4-tetrahydroxybutyl)-1H-imidazol-2-yl)-ethanone oxime], the “CD8+ T cells as compared to untreated control group” value in the assay on CD8+ T cells (gavage 100 mg/kg daily) and in the assay with CD8+ T cells (i.p. 100 mg/kg daily) was “decreased CD8+ T cells” each time. Also, the “survival as compared to control group” value with P. berghei ANKA (gavage 100 mg/kg daily) and in the assay with P. berghei ANKA (i.p. 100 mg/kg daily) was “lived significantly longer” throughout.
